Results reported in patent US9592300B2, “Methods of using redox-active surfactants to control polymer interactions” (WISCONSIN ALUMNI RESEARCH FOUNDATION, priority 2005, dated 2017).
Read-outs that look alike come from different tables or passages of the source.

Key:
[1] = Phase behaviour of FS with HM-EHEC; type: physicochemical; conditions: 1 wt % HM-EHEC, 10 mM Li2SO4, pH 5
Source text: The top layer had low viscosity (similar to that of water) and was mildly cloudy; the bottom layer was yellow and highly viscous, almost gel-like. As the concentration of reduced FS increased, the top layer became more cloudy and the bottom layer became less viscous (up to 5 mmolal). As the concentration of reduced FS was decreased (down to 0.1 mmolal), the top layer cleared and the bottom layer became less viscous. […] The solutions made with oxidized FS were faintly blue and cloudy as the concentration increased (from 0.1 to 0.5 mmolal).

COS-7 cells [2] = test system: COS-7 cells
Procedure: Preparation of lipoplexes for Transfection Assays.
Cells were then incubated for 48 hours and cell morphology and relative levels of EGFP expression were characterized using phase contrast and fluorescence microscopy.
For these experiments, cells were incubated with lipoplexes for four hours in serum-free medium, followed by incubation in fresh serum-containing medium (see Materials and Methods Section for complete description of transfection procedures).

COS-7 cells [3] = conditions: for concentrations at which maximum gene expression is observed: medium with 10% fetal bovine serum
[4] = type: physicochemical; conditions: 0.1% (w/w) EHEC, 1M Li2SO4, pH 2.5
Procedure: Surfactant-ethyl(hydroxylethyl) cellulose (EHEC) interactions were characterized by observing the clouding temperature of solutions of EHEC containing various concentrations of surfactant.
Sample Preparation. Three samples of each solution were prepared to assess reproducibility. […] The EHEC solution was filtered through 0.22 μm GV Millipore filter, placed under vacuum for 30-45 minutes, then bubbled with argon for another 30-45 minutes. This deaeration procedure was performed for all solutions, including solutions of DTAB.
The solutions of polymer, salt, and surfactant were then mixed to form 0.1 wt % EHEC, 0.1M Li2SO4, and the desired concentration of surfactant. These solutions were deaerated three times and bubbled with argon inside airtight containers. These solutions were stored at 25° C. and measured after 3 hours and 1 day.
They were simply filtered, mixed to the desired concentrations, and stored for one day before measurements of cloud points and light scattering were performed.
Cloud Point Measurements. Solution of EHEC and surfactant were immersed in a temperature bath controlled to within 0.1° C. The temperature was increased by 1° C. every 10 minutes and the solutions were visually inspected for clouding. […] The values reported in this study are based on clouding points measured upon increasing the temperature of the solutions.

[5] = QLS hydrodynamic size of BFDMA solutions without DNA; type: physicochemical; conditions: 10 μM BFDMA, Opti-MEM, 25° C.
Procedure: (§1) 1) A solution of 100 μM reduced BFDMA was prepared by dissolving BFDMA (solid) in water.
(§2) 2) A solution of 100 μM oxidized BFDMA was prepared as follows: First, a […] reduced BFDMA solution was prepared by dissolving BFDMA (solid) in 1 mM Li2SO4 aqueous solution, and then the solution was oxidized electrochemically. The resultant oxidized BFDMA solution was diluted with water to give a solution of 100 μM oxidized BFDMA.
150 μl of 100 μM reduced/oxidized BFDMA solution was diluted with 150 μl of water, followed by the addition of 1.2 ml of Opti-MEM. The final BFDMA concentration was 10 μM. QLS measurements were made at 25° C. immediately after the samples were prepared.

pEGFP-N1 = conditions: serum-free cell culture medium;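 further: dynamic light scattering of lipoplexes formed from BFDMA and pEGFP-N1 plasmid (2.4 µg/ml), scattering angles 30° to 110°, autocorrelation functions analysed with CONTIN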
pGFP = assay: QLS hydrodynamic size of BFDMA/DNA complexes; type: physicochemical; conditions: 10 μM BFDMA, 2.4 μg/ml DNA, Opti-MEM, 25° C.
Procedure: as §1, §2
1) 150 μl of 100 μM reduced/oxidized BFDMA solution was diluted with 150 μl of 24 μg/ml pGFP aqueous solution, and the solution was allowed to stand for 20 min at room temperature. 1.2 ml of Opti-MEM was added to the solution to yield a final BFDMA concentration of 10 μM and a final DNA concentration of 2.4 μg/ml. QLS measurements were made at 25° C. immediately after the samples were prepared.

COS-7 cells [6] = assay: Live/dead cytotoxicity assay of lipoplexes
[7] = [BFDMA] 6 μM, listed as Ox. BFDMA
[8] = [BFDMA] 8 μM, listed as Ox. BFDMA
[9] = [BFDMA] 10 μM, listed as Ox. BFDMA
[10] = [BFDMA] 20 μM, listed as Ox. BFDMA
[11] = [BFDMA] 60 μM, listed as Ox. BFDMA
[12] = [BFDMA] 6 μM, listed as Red. BFDMA
[13] = [BFDMA] 8 μM, listed as Red. BFDMA
[14] = [BFDMA] 10 μM, listed as Red. BFDMA
[15] = [BFDMA] 20 μM, listed as Red. BFDMA
[16] = [BFDMA] 60 μM, listed as Red. BFDMA

11-ferrocenylundecylsulfonate [oxidized FS]
liquid-liquid phase separation [1]: did not form two coexisting liquid phases

11-ferrocenylundecylsulfonate [reduced FS]
liquid-liquid phase separation [1]: caused a liquid-liquid phase separation

C[N+](C)(CCCCCCCCCCC[c-]1cccc1)CCCCCCCCCCC[c-]1cccc1.[Br-].[Fe+2].[Fe+2].c1cc[cH-]c1.c1cc[cH-]c1 [BFDMA, bis(11-ferrocenylundecyl)dimethylammonium bromide]
transfection activity following electrochemical cycling (EGFP expression) (COS-7 cells [2]; oxidized at 500 mV, then reduced at −44 mV prior to contact with DNA): retains transfection activity | magnitude of gene expression in presence of serum relative to serum-free medium (COS-7 cells [3]; four hours exposure, 10% fetal bovine serum): approximately one order of magnitude lower

O=S(=O)([O-])[O-].[Li+].[Li+] [Li2SO4]
clouding temperature [4]: less than 6 °C

C[N+](C)(CCCCCCCCCCC[c-]1cccc1)CCCCCCCCCCC[c-]1cccc1.[Br-].[Fe+2].[Fe+2].c1cc[cH-]c1.c1cc[cH-]c1 [oxidized BFDMA, bis(11-ferrocenylundecyl)dimethylammonium bromide]
hydrodynamic size of aggregates w/o DNA ([5]; time 0 min, listed as ox): 363.4 nm | hydrodynamic size of aggregates w/o DNA ([5]; time 120 min, listed as ox): 496 nm | hydrodynamic size of aggregates w/o DNA ([5]; time 240 min, listed as ox): 511 nm | EGFP expression (cell transfection) (COS-7 cells [2]; 20 μM lipid, 4 h exposure in serum-free medium, 48 h): relatively high levels | EGFP gene expression, generally (COS-7 cells [2]; 2-40 μM lipid, 4 h exposure in serum-free medium, 48 h): very low levels | levels of gene expression versus reduced BFDMA (COS-7 cells [3]; 2 hours exposure, serum-free): dramatically lower | luciferase expression (COS-7 cells [3]; 12 hour exposure, serum-free, 20 μM): in excess of expression mediated by reduced BFDMA | concentrations at which maximum gene expression is observed (COS-7 cells [3]; four hours exposure): 40 µM and 60 µM | Number-Avg Diameter (pEGFP-N1; [BFDMA] 2 μM, 600 ng DNA, listed as Ox. BFDMA): 89 (±40) nm | Intensity-Avg Diameter (pEGFP-N1; [BFDMA] 2 μM, listed as Ox. BFDMA): 196 (±86) nm | Intensity-Avg Diameter (pEGFP-N1; [7]): 217 (±58) nm | Number-Avg Diameter (pEGFP-N1; [7]): 64 (±25) nm | Intensity-Avg Diameter (pEGFP-N1; [8]): 228 (±100) nm | Number-Avg Diameter (pEGFP-N1; [8]): 86 (±37) nm | Intensity-Avg Diameter (pEGFP-N1; [9]): 266 (±212) nm | Number-Avg Diameter (pEGFP-N1; [9]): 110 (±55) nm | Number-Avg Diameter (pEGFP-N1; [BFDMA] 20 μM): ca. 610 nm | Intensity-Avg Diameter (pEGFP-N1; [10]): 1163 (±150) nm | Number-Avg Diameter (pEGFP-N1; [10]): 611 (±183) nm | Intensity-Avg Diameter (pEGFP-N1; [11]): 1497 (±340) nm | Number-Avg Diameter (pEGFP-N1; [11]): 1254 (±512) nm | hydrodynamic size of aggregates w/ DNA (pGFP; time 0 min, listed as ox): 209.6 nm | hydrodynamic size of aggregates w/ DNA (pGFP; time 120 min, listed as ox): 221.4 nm | hydrodynamic size of aggregates w/ DNA (pGFP; time 240 min, listed as ox): 297.2 nm | cytotoxicity relative to DNA alone or commercial controls (COS-7 cells [6]; 2 hours exposure, any concentration evaluated (2 μM to 60 μM), OptiMEM): not cytotoxic | toxicity (COS-7 cells [6]; 4 hours exposure, e.g. 40 μM and 60 μM): increases at higher concentrations

C[N+](C)(CCCCCCCCCCC[c-]1cccc1)CCCCCCCCCCC[c-]1cccc1.[Br-].[Fe+2].[Fe+2].c1cc[cH-]c1.c1cc[cH-]c1 [reduced BFDMA, bis(11-ferrocenylundecyl)dimethylammonium bromide]
hydrodynamic size of aggregates w/o DNA ([5]; time 0 min, listed as red): 472.8 nm | hydrodynamic size of aggregates w/o DNA ([5]; time 120 min, listed as red): 1214 nm | hydrodynamic size of aggregates w/o DNA ([5]; time 240 min, listed as red): 1090.3 nm | EGFP expression (COS-7 cells [2]; 2 μM lipid, 4 h exposure in serum-free medium, 48 h): relatively low levels | EGFP expression (transfection) (COS-7 cells [2]; 10 μM and 20 μM lipid, 4 h exposure in serum-free medium, 48 h): increased significantly | EGFP expression (transfection) (COS-7 cells [2]; 40 μM lipid, 4 h exposure in serum-free medium, 48 h): significantly reduced | cell death by phase contrast microscopy (COS-7 cells [2]; concentrations above 40 μM): Significant cell death | luciferase expression (normalized to total cell protein) (COS-7 cells [3]; 2 hours exposure, serum-free, 2 μM and 40 μM and 60 μM): low | luciferase expression (normalized to total cell protein) (COS-7 cells [3]; 2 hours exposure, serum-free, 4 μM to 20 μM): significantly higher | luciferase expression versus Lipofectamine 2000 and TransIT-LT1 (COS-7 cells [3]; four and twelve hours exposure, serum-free, 6 μM to 20 μM): comparable to or measured to be in excess of | concentrations at which maximum gene expression is observed (COS-7 cells [3]; four hours exposure): 20 µM and 40 µM | Number-Avg Diameter (pEGFP-N1; [BFDMA] 2 μM, 600 ng DNA, listed as Red. BFDMA): 158 (±64) nm | Intensity-Avg Diameter (pEGFP-N1; [BFDMA] 2 μM, listed as Red. BFDMA): 369 (±74) nm | Intensity-Avg Diameter (pEGFP-N1; [12]): 603 (±262) nm | Number-Avg Diameter (pEGFP-N1; [12]): 231 (±88) nm | Intensity-Avg Diameter (pEGFP-N1; [13]): 951 (±504) nm | Number-Avg Diameter (pEGFP-N1; [13]): 297 (±126) nm | Intensity-Avg Diameter (pEGFP-N1; [14]): 1118 (±426) nm | Number-Avg Diameter (pEGFP-N1; [14]): 219 (±126) nm | Intensity-Avg Diameter (pEGFP-N1; [15]): 2766 (±725) nm | Number-Avg Diameter (pEGFP-N1; [15]): 1490 (±750) nm | Intensity-Avg Diameter (pEGFP-N1; [16]): 4777 (±1350) nm | Number-Avg Diameter (pEGFP-N1; [16]): 1921 (±1220) nm | hydrodynamic size of aggregates w/ DNA (pGFP; time 0 min, listed as red): 689.7 nm | hydrodynamic size of aggregates w/ DNA (pGFP; time 120 min, listed as red): 2613.9 nm | hydrodynamic size of aggregates w/ DNA (pGFP; time 240 min, listed as red): 2995.5 nm | cytotoxicity (COS-7 cells [6]; 2 hours exposure, 2 μM to 10 μM): not cytotoxic | cytotoxicity (COS-7 cells [6]; 2 hours exposure, 20 μM): increases slightly | cytotoxicity (COS-7 cells [6]; 2 hours exposure, 40 μM and 60 μM): substantially cytotoxic | cytotoxicity (COS-7 cells [6]; 12 hours exposure, 6 μM to 10 μM, versus two or four hours): more cytotoxic | cytotoxicity (COS-7 cells [6]; 12 hours exposure, 20 μM): cytotoxic | cytotoxicity (COS-7 cells [6]; two or four hours exposure, 20 μM): not substantially cytotoxic
